Test system: LPS-induced release of TNFα from PBMCs from patients suffering from rheumatoid arthritis
Test: ELISA-based TNFα release assay, PBMCs from RA-patients
Type: cell-based
Details: Homo sapiens, PBMC; chimeric antibodies (CHO) 1 μg/ml; Batimastat 10 μM; LPS 1 ng/ml, 1.5 hours
Protocol: In contrast to Example 32, where the inhibitory effects of the antibodies of the present disclosure on LPS-induced release of endogenous TNFα from primary human material obtained from healthy donors using peripheral blood mononuclear cells (PBMCs) were tested, this analysis was conducted to analyze the inhibitory effects of the antibodies of the present disclosure on LPS-induced release of endogenous TNFα from primary human material obtained from patients suffering from rheumatoid arthritis (RA-patients).
In brief, on day 1, Nunc black MaxiSorp® 96-well plates (Thermo Fisher Scientific, USA) were coated overnight with 100 μl per well of mouse anti-human TNFα capture antibody (provided as part of the DuoSet ELISA kit) at 4 μg/ml TBS at 4° C. On day 2, the capture antibody solution was removed and MaxiSorp® plates were blocked with 300 μl per well of TBS, 1% BSA at room temperature for 3 hours. […] Using an infinite M1000 (Tecan Group, Switzerland) microplate reader, the fluorescence of each well was collected at an excitation wavelength of 435 nm and an emission wavelength of 555 nm.

CNC(=O)[C@H](Cc1ccccc1)NC(=O)[C@H](CC(C)C)[C@H](CSc1cccs1)C(=O)NO [Batimastat]
inhibition at 10 µM: 99.9%
